According to patent US12662455B2, “Tetrahydrobenzo-quinoline sulfonamide derivatives useful as IgE modulators” (UCB Biopharma SRL, priority 2019, dated 2026):

Each compound was assayed against T1, IgE-Tb / soluble IgE receptor FcεRIα (Y131A mutation) (Homo sapiens, UniProt P01854, C105A/N146Q/N252Q) (assay: in vitro FRET assay: binding of IgE-Tb to receptor FcεRIα-Y131A-AF488 and inhibition by compounds). Conditions: 5 nM IgE-Tb, 25 nM FcεRIα-Y131A-AF488, 2 hours at room temperature; read-out: FRET IC50 range.
T1 construct: 86 nmoles of IgE-Fc(N265Q, N371Q) (Young et al., 1995)
T1 sequence (P01854 104-428 isoform P01854-1 C105A/N146Q/N252Q): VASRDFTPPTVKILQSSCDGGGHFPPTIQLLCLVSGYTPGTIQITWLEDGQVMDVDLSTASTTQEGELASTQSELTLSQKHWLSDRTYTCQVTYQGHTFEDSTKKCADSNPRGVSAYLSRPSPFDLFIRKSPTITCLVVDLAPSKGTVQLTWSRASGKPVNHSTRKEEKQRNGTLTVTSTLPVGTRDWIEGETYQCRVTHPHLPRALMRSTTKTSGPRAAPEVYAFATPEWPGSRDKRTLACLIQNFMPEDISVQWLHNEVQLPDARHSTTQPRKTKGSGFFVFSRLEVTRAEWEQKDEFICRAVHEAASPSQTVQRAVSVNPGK
Procedure: 86 nmoles of IgE-Fc(N265Q, N371Q) (Young et al., 1995) at 172 μM in 100 mM NaHCO3, pH 9.5 was added to 1 mg of LanthaScreen™ Amine Reactive Tb Chelate (ThermoFisher catalogue number PV3583) and incubated for 16 hours at 20° C. The material was then buffer exchanged into Phosphate Buffered Saline (being, 137 mM NaCl, 2.7 mM KCl, 10 mM Na2HPO4, 1.8 mM K2HPO4, pH 7.4) and the material quantified and the degree of Tb conjugation determined by measuring the absorption at 280 nm and 343 nm.
The integrity of the conjugated material was determined by analytical size exclusion chromatography on a S200 HR 10×300 column (GE Healthcare). Typical conjugation ratios were 4:1 Tb:IgE-Fc.
400 nmoles FcεR1α(Y131A mutant) (Cook et al., 1997) at 400 μM in 100 mM NaOAc pH 5.5 was reacted with 1 mM final concentration sodium periodate (in 100 mM NaOAc, pH 5.5) for 60 minutes at 22° C. Oxidation was quenched with the addition of 40 μL of ethanediol and incubation for 60 minutes at 22° C. The protein was buffer exchanged in to conjugation buffer (50 mM NaHCO3, 150 mM NaCl, pH 9.5) and concentrated to 750 μM.
175 nmoles of protein was added to 1 mg of Alexa Fluor™ 488 hydrazide (Invitrogen) and incubated for 16 hours at 22° C. Sodium cyanoborohydride (at 100 mM in conjugation buffer) was added to a final concentration of 1 mM and incubated for 60 minutes on ice. The protein was buffer exchanged into Phosphate Buffered Saline (being, 137 mM NaCl, 2.7 mM KCl, 10 mM Na2HPO4, 1.8 mM K2HPO4, pH 7.4) and the material quantified and the degree of Alexa Fluor™ 488 conjugation determined by measuring the absorption at 280 nm and 495 nm.
The integrity of the conjugated material was determined by analytical size exclusion chromatography on a S200 HR 10×300 column (GE Healthcare). Typical conjugation ratios were 2:1 Alexa Fluor™488: sFcεR1α
The aim was to measure binding of IgE-Tb to receptor, and the inhibition thereof by compounds, using an in vitro Fluorescence Resonance Energy Transfer (FRET) Assay.
FRET reagents used were IgE labelled with Terbium (FRET donor), and soluble IgE receptor FcεRIα with a Y131A mutation, labelled with Alexa Fluor™ 488 (FRET acceptor). Unlabelled FcεRIα was also used to generate a background control. The assay buffer consisted of 20 mM Tris pH7.2, 150 mM NaCl, and 0.002% Tween, 1% DMSO.
The assay was conducted according to the following: Each assay reaction was conducted in a volume of 25 μl in a 384-well half-volume plate. 10 point compound serial dilutions (3-fold) were generated in DMSO at a concentration of ×50 that of the final assay concentration (FAC). Compound solutions were then prepared by IgE-Tb diluting 10-fold in assay buffer. For the assay, 5 μl of diluted compound was added to 10 μl of, followed by addition of 10 μl FcεRIα-Y131A-AF488. FRET reagents FACs were 5 nM IgE-Tb, 25 nM FcεRIα-Y131A-AF488. Usually the top FAC of compound in the assay was 10 μM. The final DMSO concentration was 2%. The minimum signal (MIN) was measured by adding 5 μl unlabelled FcεRIα at 1 μM (FAC=200 nM) to the FRET reagents. The maximum FRET signal (MAX) was measured in wells containing FRET reagents but no compound.
The assay was incubated for 2 hours at room temperature, protected from light and evaporation, and with gentle agitation.
Measurement of FRET for each well was carried out by exciting at 330 nm and measuring emission at 495/520 nm using an Envision plate reader (Perkin Elmer). FRET ratio was calculated as follows: Emission at 520/Emission at 495×1000.
The FRET ratio was used for the data analysis.
Z′ was calculated as follows (σ=standard deviation and μ=mean): 1−((3×σ^MAX)+(3×σMIN))/(μMAX−μMIN)
Z′ above 0.5 was considered a good assay.
Background signal (MIN) was subtracted from all wells. Using the background subtracted values, the percent inhibition by compound in each test-well was calculated as follows: 100−Test-well FRET ratio/MAX FRET ratio×100.
Percent inhibition was plotted against compound concentration. […]

Row | Compound | IC50 [µM]
1 | CC(C)CNS(=O)(=O)c1cc2c(c3cnc(C4CC4)cc13)C(NS(C)(=O)=O)CCC2 (stereo not drawn) [Example 5, 3-cyclopropyl-10-(methanesulfonamido)-N-(2-methylpropyl)-7,8,9,10-tetrahydrobenzol[h]isoquinoline-5-sulfonamide] | 1 to 5
2 | CCOC(=O)c1ncn(C2CCCc3c2cc(S(=O)(=O)NCC(C)(C)F)c2cc(C4CC4)ncc32)c1N (stereo not drawn) [Example 9, ethyl 5-amino-1-[3-cyclopropyl-5-[(2-fluoro-2-methylpropyl)sulfamoyl]-7,8,9,10-tetrahydrobenzo[h]isoquinolin-7-yl]imidazole-4-carboxylate] | 0.1 to 1
3 | Cc1cc(NC(=O)NC2CCCc3c2cc(S(=O)(=O)NCC(C)(C)F)c2cc(C4CC4)ncc32)n(C)n1 (stereo not drawn) [Example 11, 1-[3-cyclopropyl-5-[(2-fluoro-2-methylpropyl)sulfamoyl]-7,8,9,10-tetrahydrobenzo[h]isoquinolin-7-yl]-3-(2,5-dimethylpyrazol-3-yl) urea] | 0.1 to 1
4 | CC(C)CNS(=O)(=O)c1cc2c(c3cnc(C4CC4)cc13)CCCC2NS(C)(=O)=O (stereo not drawn) [Example 4, 3-cyclopropyl-7-(methanesulfonamido)-N-(2-methylpropyl)-7,8,9,10-tetrahydrobenzo[h]isoquinoline-5-sulfonamide] | 0.1 to 1
5 | Cc1noc(-c2cncc(NC3CCCc4c3cc(S(=O)(=O)NCC(C)(C)F)c3cc(C5CC5)ncc43)c2)n1 (stereo not drawn) [Example 10, 3-cyclopropyl-N-(2-fluoro-2-methylpropyl)-7-[[5-(3-methyl-1,2,4-oxadiazol-5-yl)pyridin-3-yl]amino]-7,8,9,10-tetrahydrobenzo[h]isoquinoline-5-sulfonamide] | 0.05 to 0.1
6 | CCNC(=O)NC1CCCc2cc(S(=O)(=O)NCC(C)C)c3cc(C4CC4)ncc3c21 (stereo not drawn) [Example 3, 1-[3-cyclopropyl-5-(2-methylpropylsulfamoyl)-7,8,9,10-tetrahydrobenzo[h]isoquinolin-10-yl]-3-ethylurea] | 0.1 to 1
7 | CC(C)CNS(=O)(=O)c1cc2c(c3cnc(C4CC4)cc13)CCCC2 [Example 1, 3-cyclopropyl-N-(2-methylpropyl)-7,8,9,10-tetrahydrobenzo[h]isoquinoline-5-sulfonamide] | 0.1 to 1
8 | Cn1nnc(-c2ccc(NC3CCCc4c3cc(S(=O)(=O)NCC(C)(C)F)c3cc(C5CC5)ncc43)cn2)n1 (stereo not drawn) [Example 6] | 0.01 to 0.05
9 | Cn1nnc(-c2ccc(NC3CCCc4cc(S(=O)(=O)NCC(C)(C)F)c5cc(C6CC6)ncc5c43)cn2)n1 (stereo not drawn) [Example 8, 3-cyclopropyl-N-(2-fluoro-2-methylpropyl)-10-[[6-(2-methyltetrazol-5-yl)pyridin-3-yl]amino]-7,8,9,10-tetrahydrobenzo[h]isoquinoline-5-sulfonamide] | 0.1 to 1
10 | CCNC(=O)NC1CCCc2c1cc(S(=O)(=O)NCC(C)C)c1cc(C3CC3)ncc21 (stereo not drawn) [Example 2, 1-[3-cyclopropyl-5-(2-methylpropylsulfamoyl)-7,8,9,10-tetrahydrobenzo[h]isoquinolin-7-yl]-3-ethylurea] | 0.05 to 0.1
11 | CCOC(=O)c1cn(C2CCCc3c2cc(S(=O)(=O)NCC(C)(C)F)c2cc(C4CC4)ncc32)cn1 (stereo not drawn) [Example 12, ethyl 1-[3-cyclopropyl-5[(2-fluoro-2-methylpropyl)sulfamoyl]-7,8,9,10-tetrahydrobenzo[h]isoquinolin-7-yl]imidazole-4-carboxylate] | 0.1 to 1
12 | Cc1cc(Nc2nncn2C2CCCc3c2cc(S(=O)(=O)NCC(C)(C)F)c2cc(C4CC4)ncc32)n(C)n1 (stereo not drawn) [Example 7, 3-cyclopropyl-7-[3-[(2,5-dimethylpyrazol-3-yl)amino]-1,2,4-triazol-4-yl]-N-(2-fluoro-2-methylpropyl)-7,8,9,10-tetrahydrobenzo[h]isoquinoline-5-sulfonamide] | 0.1 to 1
